In article PMC9738565, “N1-Benzyl Tryptamine Pan-SHIP1/2 Inhibitors: Synthesis and Preliminary Biological Evaluation as Anti-Tumor Agents” (Molecules, 2022):
Read-outs that look alike come from different tables or passages of the source. Marks after values point to notes of the source that are not given here.

Legend:
[1] = test system: recombinant human truncated SHIP1 (tSHIP1); test: Malachite green phosphatase release assay, SHIP1; format: biochemical; settings: for Malachite (250 µM) % Inhib. SHIP1: 250 µM compound; for Malachite (500 µM) % Inhib. SHIP1: 500 µM compound; for activity against SHIP1 (in words): summary of Table 1
Experimental: These compounds were then tested for their activity against the two SHIP paralogs, SHIP1 and SHIP2 in the colorimetric malachite green phosphatase assay. The malachite green assay detects the amount of free phosphate produced from enzymatic reactions with SHIP and an inositol phospholipid substrate. The Malachite assay is useful for ruling out compounds that are fluorescent or have aggregation issues and is inexpensive, so it was utilized as the primary screen even though it is not as sensitive as other assays.
(§1) 4.7. Malachite Green Phosphatase Release Assays
(§2) Malachite green assays to monitor phosphatase release (Echelon Biosciences) were performed with recombinant human truncated SHIP1 (tSHIP1) and SHIP2 (Echelon Biosciences). Serial dilutions of the compounds dissolved in DMSO were added to the recombinant enzymes diluted in reaction buffer Rx (50 mM Hepes pH 7.4, 150 mM NaCl, 1 mM MgCl2, 0.25 mM EDTA) in triplicate reaction wells in 96-well plates. After incubation for 2 min at room temperature, 2.5 µL of 1 mM phosphatidylinositol 3,4,5-trisphosphate diC8 (PI(3,4,5)P3-diC8, Echelon Biosciences) was added to each reaction to a final concentration of 100 µM in a final volume of 25 µL /well. Following a 20 min incubation at 37 °C, 100 µL of Malachite Green solution (Echelon Biosciences) was added to each well and the plates were incubated at room temperature in the dark for 15 min. Plates were then read at 620 nm on a plate reader (Synergy 2, BioTek, Santa Clara, CA, USA). In addition, 3α-Aminocholestane, a known SHIP1 inhibitor, and AS1949490, a known SHIP2 inhibitor, were used as positive controls.

SHIP2 [2] = target: T1, SHIP2 (Homo sapiens, UniProt O15357); test: Malachite green phosphatase release assay, SHIP2; format: biochemical; settings: for inhibition at 250 µM: read-out: Malachite (250 µM) % Inhib. SHIP2; for inhibition at 500 µM: read-out: Malachite (500 µM) % Inhib. SHIP2; for activity against SHIP2 (in words): summary of Table 1
T1 construct: purchased Echelon Biosciences
T1 sequence (O15357 1-1258): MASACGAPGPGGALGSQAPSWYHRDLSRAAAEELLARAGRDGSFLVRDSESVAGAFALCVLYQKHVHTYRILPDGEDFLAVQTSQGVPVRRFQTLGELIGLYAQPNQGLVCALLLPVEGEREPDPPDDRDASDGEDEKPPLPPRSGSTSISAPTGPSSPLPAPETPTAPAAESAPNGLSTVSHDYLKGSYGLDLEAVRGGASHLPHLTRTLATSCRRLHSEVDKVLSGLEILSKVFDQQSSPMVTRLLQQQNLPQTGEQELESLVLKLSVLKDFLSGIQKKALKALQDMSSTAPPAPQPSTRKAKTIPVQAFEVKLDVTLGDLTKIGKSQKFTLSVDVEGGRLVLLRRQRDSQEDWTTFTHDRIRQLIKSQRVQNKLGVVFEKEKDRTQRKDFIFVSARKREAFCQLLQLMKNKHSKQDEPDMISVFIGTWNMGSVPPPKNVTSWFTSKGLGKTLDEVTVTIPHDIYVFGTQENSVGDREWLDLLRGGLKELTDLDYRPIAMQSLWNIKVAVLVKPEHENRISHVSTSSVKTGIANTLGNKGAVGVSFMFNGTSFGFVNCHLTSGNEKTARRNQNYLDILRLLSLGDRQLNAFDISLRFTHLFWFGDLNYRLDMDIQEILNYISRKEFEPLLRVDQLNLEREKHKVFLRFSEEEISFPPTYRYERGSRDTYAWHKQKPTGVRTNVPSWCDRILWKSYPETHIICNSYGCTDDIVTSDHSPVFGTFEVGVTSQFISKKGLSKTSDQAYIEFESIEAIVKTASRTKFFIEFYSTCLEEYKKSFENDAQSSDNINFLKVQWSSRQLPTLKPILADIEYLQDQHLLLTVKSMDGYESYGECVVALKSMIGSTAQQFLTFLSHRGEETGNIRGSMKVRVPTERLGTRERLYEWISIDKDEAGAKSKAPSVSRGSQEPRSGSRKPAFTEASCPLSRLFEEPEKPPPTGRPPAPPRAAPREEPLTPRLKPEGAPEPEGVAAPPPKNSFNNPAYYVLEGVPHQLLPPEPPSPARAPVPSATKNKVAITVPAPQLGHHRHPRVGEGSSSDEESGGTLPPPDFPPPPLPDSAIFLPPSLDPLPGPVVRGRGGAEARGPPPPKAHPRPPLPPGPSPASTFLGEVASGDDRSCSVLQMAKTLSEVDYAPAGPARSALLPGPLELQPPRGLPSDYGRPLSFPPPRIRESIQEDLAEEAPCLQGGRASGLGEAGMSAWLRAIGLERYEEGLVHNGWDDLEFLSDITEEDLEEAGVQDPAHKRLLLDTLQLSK
Experimental: (§3) These compounds were then tested for their activity against the two SHIP paralogs, SHIP1 and SHIP2 in the colorimetric malachite green phosphatase assay. The malachite green assay detects the amount of free phosphate produced from enzymatic reactions with SHIP and an inositol phospholipid substrate.
as §1, §2

tSHIP1 = target: T2, tSHIP1 (Homo sapiens, UniProt Q92835); test: Fluorescence Polarization (FP) assay for the detection of PI(3,4)P2, SHIP1; format: biochemical; settings: FP assay; read-out: IC50 SHIP1 (Via FP)
T2 sequence (Q92835 399-715 limits assumed): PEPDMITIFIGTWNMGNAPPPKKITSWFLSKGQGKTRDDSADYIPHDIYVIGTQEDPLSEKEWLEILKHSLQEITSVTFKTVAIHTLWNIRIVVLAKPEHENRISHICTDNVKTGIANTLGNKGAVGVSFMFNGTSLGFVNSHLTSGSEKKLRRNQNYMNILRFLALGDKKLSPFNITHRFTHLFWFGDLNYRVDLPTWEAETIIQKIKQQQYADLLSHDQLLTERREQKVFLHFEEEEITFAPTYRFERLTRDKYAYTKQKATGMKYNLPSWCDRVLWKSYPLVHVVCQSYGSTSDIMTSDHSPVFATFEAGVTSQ
Experimental: as §3
4.8. Fluorescence Polarization (FP) Assays for the Detection of PI(3,4)P2
The FP Assay for the detection of PI(3,4)P2 (Echelon Biosciences) was performed using tSHIP1 [48] with serial dilutions of the tryptamines in DMSO according to the manufacturer’s recommendation as previously described. […] 40 µL of 4 µM PIP3 (PI(3,4,5)P3-diC8) in Rx buffer is added to each reaction and incubated at 37 °C for 20 min, followed by heat inactivation for 3 min at 95 °C. Reactions were spun down briefly and 10 µL of each reaction was added in 6 replicate wells to a black 384-well plate provided with the FP kit. 10 µL of 1X reconstituted Detector (a phosphoinositide binding protein) in PBS is then added to each well, followed by 5 µL of 1X freshly diluted Probe (in PBS, a fluorophore-labeled phosphoinositide) protected from light. Assay plates are gently tapped to mix, the plate is sealed and spun down briefly and the reaction is allowed to equilibrate for 60 min at room temperature protected from light.

SHIP2 [3] = target: T1, SHIP2; test: Fluorescence Polarization (FP) assay for the detection of PI(3,4)P2, SHIP2; format: biochemical; settings: read-out: IC50 SHIP2 (via FP)
[4] = Behaviour of compound when mixed with assay buffer; format: physicochemical
Experimental: Compounds with modifications of the primary amine of the tryptamine were also tested. […] While SHIP1 agonists may have applications as anti-inflammatories, the agonist activity of 15 was weak and therefore was not further pursued. […] While these analogs may present a path towards selective inhibitors of SHIP2, these compounds will not be useful in determining the effects of pan-SHIP inhibition in tumor models.

SMILES	Malachite (250 µM) % Inhib. SHIP1 [1]	Malachite (500 µM) % Inhib. SHIP1 [1]	activity against SHIP1 (in words) [1]	inhibition at 250 µM (SHIP2 [2]; 250 µM compound) [%]	inhibition at 500 µM (SHIP2 [2]; 500 µM compound) [%]	activity against SHIP2 (in words) (SHIP2 [2])	IC50 (tSHIP1) [µM]	IC50 (SHIP2 [3]) [µM]	inhibition at 250 µM (SHIP2 [2]) [%]	inhibition at 500 µM (SHIP2 [2]) [%]	solubility behaviour in buffer [4]
CSc1ccc2c(c1)c(CCN)c(C)n2Cc1ccc(Cl)cc1.Cl [Compound 7b, 2-(1-(4-Chlorobenzyl)-2-methyl-5-(methylthio)-1H-indol-3-yl)ethanaminium chloride]	0%	33%	significant activity	18	49	significant activity	11	–	–	–	–
CSc1ccc2c(c1)c(CCN)c(C)n2Cc1ccc(Br)cc1.Cl [Compound 7c, 2-(1-(4-Bromobenzyl)-2-methyl-5-(methylthio)-1H-indol-3-yl)ethanaminium chloride]	3%	47%	–	30	38	–	51	58	–	–	–
CSc1ccc2c(c1)c(CCN)c(C)n2Cc1ccccc1.Cl [Compound 7e, 2-(1-Benzyl-2-methyl-5-(methylthio)-1H-indol-3-yl)ethanaminium chloride]	0%	40%	active analog	28	39	active analog	13	12	–	–	–
CSc1ccc2[nH]c(C)c(CCN)c2c1.Cl [Compound 7f, 2-(2-Methyl-5-(methylthio)-1H-indol-3-yl)ethanaminium chloride]	0%	0%	virtually no activity	–	–	virtually no activity	–	–	0	2	–
CNCCc1c(C)n(Cc2ccccc2Cl)c2ccc(SC)cc12 [Compound 13, (2{1-[(2-Chlorophenyl)methyl]-2-methyl-5-(methylsulfanyl-1H-indol-3-yl}ethyl)methylaminium chloride]	0%	9%	no inhibition	14	38	–	–	–	–	–	–
CSc1ccc2c(c1)c(CCN(C)C)c(C)n2Cc1ccccc1Cl [Compound 14, (2{1-[(2-Chlorophenyl)methyl]-2-methyl-5-(methylsulfanyl-1H-indol-3-yl}ethyl)dimethylaminium chloride]	0%	5%	inactive	0	6	inactive	–	–	–	–	–
CSc1ccc2c(c1)c(CCNS(C)(=O)=O)c(C)n2Cc1ccccc1Cl [Compound 15, N-(2{1-[(2-Chlorophenyl)methyl]-2-methyl-5-(methylsulfanyl)-1H-indol-3-yl}ethyl) methanesulfonamide]	−10%	−27%	weak agonist	–	–	–	–	–	–	–	–
CSc1ccc2c(c1)c(CCNC(C)=O)c(C)n2Cc1ccccc1Cl [Compound 16]	25% ^a	0% ^a	–	0	0	–	–	–	–	–	tended to precipitate when mixed with buffer
CCNCCc1c(C)n(Cc2ccccc2Cl)c2ccc(SC)cc12 [Compound 17, (2{1-[(2-Chlorophenyl)methyl]-2-methyl-5-(methylsulfanyl-1H-indol-3-yl}ethyl)ethylaminium chloride]	1%	21%	no inhibition	13	47	–	–	–	–	–	–
